Test results from US20150087683A1, “TREATMENT METHOD FOR STEROID RESPONSIVE DERMATOSES” (GlaxoSmithKline Intellectual Property (No.2) Limited, priority 2012, published 2015).
Values joined by “and” are separate entries in the source; they are usually repeats but may differ in a detail not shown here. Identical values can stand only once.

Assays:
plaques of psoriasis = test: Clinical result: psoriasis plaques in a patient of cancer trial PCS113124; type: in vivo; conditions: human, patient 1200
From the text: Compound C was in human clinical trials for the treatment of cancer.

primary keratinocytes = test: CMap analysis using psoriasis disease signature against mRNA expression profiles of compound-treated primary keratinocytes (Assay #2); type: cell-based, human; conditions: for Ks down / Ks up / Raw Score / Scale Score: Keratinocyte
Protocol: The general procedure of Assay #1 was repeated with Compound C with substitution of primary keratinocytes. Primary keratinocytes were purchased from Zen-Bio, Inc. and grown in Zen-Bio, Inc. human adult keratinocyte growth medium (cat# KM-2).
Following the general procedure of Assay #1 for Day 1, keratinocytes plated on T225 flasks were trypsinized and resuspended in 17.4 mL of KM-2 medium. The cells were then seeded in the 6-well plates with 0.5×10^6 cells per well in a total 4 mL KM-2 medium.
Following the general procedure of Assay #1 for Day 2, keratinocytes were treated with the compound at the final concentrations of 1 uM and 10 uM for 6 hours. KM-2 medium containing test compound is aspirated from the cell monolayer. 350 ul of RLT buffer is added per well, the contents in each well were scraped and transferred to an appropriately labeled microfuge tube. Samples were frozen and stored at −80 C.
The subsequent sample processing, RNA purification and hybridization to the chips for microarray experiments were conducted by Expression Analysis, Inc. Durham N.C. (EA).

MCF7 cells = test: CMap analysis using psoriasis disease signature against mRNA expression profiles of compound-treated MCF7 cells (Assay #1); type: cell-based, human
Protocol: A general overview of the experimental protocol is indicated below.
The flask is incubated at 37 C for ˜2 minutes to dissociate the cells. • The dissociated cells are harvested with culture media, ˜10 ml/flask. • The harvested cell suspensions are pooled and re-suspended to ensure a homogenous suspension. • The suspension is divided into approximately 1e10̂6 cells per well. • The cells are spun down and re-suspended in fresh culture media to 1e10̂6 cells/2 mL media. • 2 ml of the adjusted cell suspension is dispensed into each well of 6-well plates. • The 6-well plates are incubated overnight at approximately 37 C: 5% CO2.
• An assay block, containing 3 ul 10 mM compound (small molecule)/well, is allowed to return to room temperature. • Culture media is warmed to 37 C. • 600 ul culture media is added to each well of assay block (containing 3 ul 10 mM compound). (=200× dilution) • Intermediate dilution is then 50 uM. • 500 ul of the intermediate dilution is transferred directly on to cells in 6-wells plated (in 2 ml) from previous day. (=5× dilution) • Cells then have 2.5 ml media on them. Final compound concentration is then 10 uM, final DMSO concentration is then 0.1%. • Treated cells are then returned to the incubator and treatment time is noted. • By way of example, if the final treatment concentration is to be something other than 10 uM, the stock should be adjusted first in DMSO so that the […] dilution still delivers 0.1% DMSO final.
• Fresh RLT buffer (QIAGEN)+2-Me is prepared. • After 6 hours of treatment, the 6-well plates are removed from incubator. • The test compound is aspirated from the cell monolayer. • 350 ul of RLT buffer is added per well. • Cells are scraped and the contents of each well is transferred to an appropriately labeled microfuge tube. • Freeze and store the samples at −80 C.
Frozen samples were shipped to Expression Analysis, Inc. Durham N.C. (EA) to generate RNA profiling data. To generate whole genome RNA expression profiles, samples were processed for RNA purification and hybridization to IllumanHT-12-V4 Expression BeadChips.
The significance of particular set of compound instance(s) of interest is estimated by permutation pvalue.

Structure (SMILES): Cn1ncc(Cl)c1-c1cc(C(=O)N[C@H](CN)Cc2ccc(F)c(F)c2)oc1Cl [Compound C, N-{(1S)-2-amino-1-[(3,4-difluorophenyl)methyl]ethyl}-5-chloro-4-(4-chloro-1-methyl-1H-pyrazol-5-yl)-2-furancarboxamide]
- course of mild plaques of psoriasis during treatment (plaques of psoriasis): generally got better and even disappeared at times
- Ks down (primary keratinocytes; 1 uM, Day 1): 0.112
- Ks up (primary keratinocytes; 1 uM, Day 1): −0.22
- Raw Score (primary keratinocytes; 1 uM, Day 1): −0.3324
- Scale Score (primary keratinocytes; 1 uM, Day 1): −0.6723
- Ks down (primary keratinocytes; 1 uM, Day 2): 0.172
- Ks up (primary keratinocytes; 1 uM, Day 2): −0.248
- Raw Score (primary keratinocytes; 1 uM, Day 2): −0.4204
- Scale Score (primary keratinocytes; 1 uM, Day 2): −0.8504
- Ks down (primary keratinocytes; 1 uM, Day 3): 0.124
- Ks up (primary keratinocytes; 1 uM, Day 3): −0.139
- Raw Score (primary keratinocytes; 1 uM, Day 3): −0.2625
- Scale Score (primary keratinocytes; 1 uM, Day 3): −0.5309
- Ks down (primary keratinocytes; 10 uM, Day 1): 0.112
- Ks up (primary keratinocytes; 10 uM, Day 1): −0.213
- Raw Score (primary keratinocytes; 10 uM, Day 1): −0.3251
- Scale Score (primary keratinocytes; 10 uM, Day 1): −0.6576
- Ks down (primary keratinocytes; 10 uM, Day 2): 0.115
- Ks up (primary keratinocytes; 10 uM, Day 2): −0.296
- Raw Score (primary keratinocytes; 10 uM, Day 2): −0.4104
- Scale Score (primary keratinocytes; 10 uM, Day 2): −0.8302
- Ks down (primary keratinocytes; 10 uM, Day 3): 0.114
- Ks up (primary keratinocytes; 10 uM, Day 3): −0.241
- Raw Score (primary keratinocytes; 10 uM, Day 3): −0.3551
- Scale Score (primary keratinocytes; 10 uM, Day 3): −0.7182
- gene expression changes versus gene expression changes observed in psoriasis (primary keratinocytes; primary keratinocytes): negatively correlated
- Enrichment Score (MCF7 cells; MCF7, 10 uM, 6 hours treatment): −0.8835
- Mean CMap Score (MCF7 cells; MCF7, 10 uM, 6 hours treatment): −0.1867
- CMap Score Distribution (MCF7 cells; MCF7, 10 uM, 6 hours treatment, individual instance scores): (−0.17 −0.17 and −0.21)
- gene expression changes versus gene expression changes observed in psoriasis (MCF7 cells; MCF7 cells): negatively correlated
